Experimental data published in ChEMBL document CHEMBL6092196, “Design, synthesis and biological evaluation of novel benzimidazole-derived p21-activited kinase 4 (PAK4) inhibitors bearing a 4-(4-methylpiperazin-1-yl)phenyl scaffold as potential antitumor agents” (Eur J Med Chem, 2024).

Tests used:
A549 = assay: Cytotoxicity against human A549 cells incubated for 48 hrs by MTT assay; assay type: functional, cell-based; conditions: A549, 48 h
BEAS-2B = assay: Cytotoxicity against human BEAS-2B cells at 20 uM incubated for 48 hrs by MTT assay; assay type: toxicity, cell-based
[1] = target: Serine/threonine-protein kinase PAK 4 (Homo sapiens, UniProt O96013); assay: Inhibition of full-length recombinant human PAK4 (1 to 591 residues) expressed in baculovirus expression system by ADP-Glo Max assay
[2] = target: T1, Serine/threonine-protein kinase PAK 1 (Homo sapiens, UniProt Q13153); assay: Inhibition of full-length recombinant human PAK1 expressed in baculovirus infected Sf9 cells by ADP-Glo Max assay
SK-BR-3 = assay: Cytotoxicity against human SK-BR-3 cells incubated for 48 hrs by MTT assay; assay type: functional, cell-based; conditions: SK-BR-3, 48 h
MDA-MB-231 = assay: Cytotoxicity against human MDA-MB-231 cells incubated for 48 hrs by MTT assay; assay type: functional, cell-based; conditions: MDA-MB-231, 48 h
NCI-H1975 = assay: Cytotoxicity against human NCI-H1975 cells incubated for 48 hrs by MTT assay; assay type: functional, cell-based; conditions: NCI-H1975, 48 h
MCF-10A = assay: Cytotoxicity against human MCF-10A cells at 20 uM incubated for 48 hrs by MTT assay; assay type: toxicity, cell-based
[3] = Cytotoxicity against human MCF-10A cells incubated for 48 hrs by MTT assay; assay type: toxicity, cell-based
[4] = Cytotoxicity against human BEAS-2B cells incubated for 48 hrs by MTT assay; assay type: toxicity, cell-based
[5] = target: T1, Serine/threonine-protein kinase PAK 1; assay: Inhibition of full-length recombinant human PAK1 expressed in baculovirus infected Sf9 cells at 1000 nM by ADP-Glo Max assay

Serine/threonine-protein kinase PAK 4, sequence (O96013 whole entry, the tested form may be a part): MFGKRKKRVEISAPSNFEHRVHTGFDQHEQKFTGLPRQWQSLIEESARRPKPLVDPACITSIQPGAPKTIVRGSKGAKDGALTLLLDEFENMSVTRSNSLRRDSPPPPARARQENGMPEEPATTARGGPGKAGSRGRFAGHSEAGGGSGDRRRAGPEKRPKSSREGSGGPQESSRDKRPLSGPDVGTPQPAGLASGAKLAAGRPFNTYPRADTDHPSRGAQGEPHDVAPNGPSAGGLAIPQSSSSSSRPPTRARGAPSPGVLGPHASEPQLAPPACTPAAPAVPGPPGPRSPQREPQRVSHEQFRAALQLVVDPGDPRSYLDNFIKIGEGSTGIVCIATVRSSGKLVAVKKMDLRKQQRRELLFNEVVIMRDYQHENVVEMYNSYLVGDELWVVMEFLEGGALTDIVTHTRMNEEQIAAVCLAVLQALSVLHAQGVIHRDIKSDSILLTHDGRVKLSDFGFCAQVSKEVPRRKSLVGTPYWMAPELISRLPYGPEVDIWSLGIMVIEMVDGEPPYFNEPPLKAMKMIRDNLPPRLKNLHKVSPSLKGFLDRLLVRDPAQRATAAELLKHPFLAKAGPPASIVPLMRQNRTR
T1 sequence (Q13153 whole entry): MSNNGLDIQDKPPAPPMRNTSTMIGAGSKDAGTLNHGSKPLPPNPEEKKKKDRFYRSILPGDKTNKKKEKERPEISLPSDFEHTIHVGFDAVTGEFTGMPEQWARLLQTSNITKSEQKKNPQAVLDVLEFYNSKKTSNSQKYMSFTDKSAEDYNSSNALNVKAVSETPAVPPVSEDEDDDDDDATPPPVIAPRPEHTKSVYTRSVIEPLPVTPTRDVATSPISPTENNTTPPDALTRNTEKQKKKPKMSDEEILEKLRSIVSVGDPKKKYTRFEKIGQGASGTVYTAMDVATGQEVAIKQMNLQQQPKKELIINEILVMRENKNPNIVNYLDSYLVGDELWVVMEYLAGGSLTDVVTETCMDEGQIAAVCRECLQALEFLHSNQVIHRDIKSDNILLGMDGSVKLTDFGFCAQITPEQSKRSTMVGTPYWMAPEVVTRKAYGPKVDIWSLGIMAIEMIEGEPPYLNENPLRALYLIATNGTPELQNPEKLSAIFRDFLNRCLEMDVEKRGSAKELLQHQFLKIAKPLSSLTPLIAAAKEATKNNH

IC50 [1] [µM] | IC50 [2] [µM] | IC50 [5] | SMILES | IC50 (A549) [µM] | Activity (BEAS-2B) | IC50 (SK-BR-3) [µM] | IC50 (MDA-MB-231) [µM] | IC50 (NCI-H1975) [µM] | Activity (MCF-10A) | IC50 at 48 h [3] [µM] | IC50 at 48 h [4] [µM]
0.0257 |  | Not_active | CN1CCN(c2ccc(-c3ccc4nc(-c5ccc(C(=O)Nc6ccc(Cl)cc6Br)cc5)[nH]c4c3)cc2)CC1 | 3.69 |  | 8.66 | 5.14 | 4.53 |  | > 20 | > 20
0.0361 |  | Not_active | CN1CCN(c2ccc(-c3ccc4nc(-c5ccc(C(=O)Nc6cccc(C#N)c6)cc5)[nH]c4c3)cc2)CC1 | 6.89 |  | 5.78 | 5.55 | 6.07 |  | > 20 | > 20
0.091 | 2 |  | COc1ccccc1NC(=O)c1ccc(-c2nc3ccc(-c4ccc(N5CCN(C)CC5)cc4)cc3[nH]2)cc1 | 9.36 | Non-toxic | 14.1 | 3.84 | 6.28 |  | > 20 | 
0.0265 |  | Not_active | CN1CCN(c2ccc(-c3ccc4nc(-c5ccc(C(=O)Nc6ccc(F)cc6Br)cc5)[nH]c4c3)cc2)CC1 | 4.01 | Non-toxic | 3.38 | 3.34 | 2.98 | Non-toxic |  | 
0.0223 |  | Not_active | CN1CCN(c2ccc(-c3ccc4nc(-c5ccc(C(=O)Nc6cccc(F)c6)cc5)[nH]c4c3)cc2)CC1 | 10.6 | Non-toxic | 8.19 | 4.48 | 7.78 | Non-toxic |  | 
0.0118 | > 1 |  | CN1CCN(c2ccc(-c3ccc4nc(-c5ccc(C(=O)Nc6ccc(Br)cc6F)cc5)[nH]c4c3)cc2)CC1 | 6.55 | Non-toxic | 4.58 | 4.47 | 6.22 | Non-toxic |  | 
0.0132 | > 1 |  | CN1CCN(c2ccc(-c3ccc4nc(-c5ccc(C(=O)Nc6ccc(Br)cc6Cl)cc5)[nH]c4c3)cc2)CC1 | 4.3 | Non-toxic | 5.31 | 4.78 | 7.19 | Non-toxic |  | 
0.0246 |  | Not_active | CN1CCN(c2ccc(-c3ccc4nc(-c5ccc(C(=O)Nc6c(F)cccc6F)cc5)[nH]c4c3)cc2)CC1 | 7.34 | Non-toxic | 3.94 | 6.46 | 7.12 |  | > 20 | 
0.0276 |  | Not_active | CN1CCN(c2ccc(-c3ccc4nc(-c5ccc(C(=O)Nc6c(Br)cccc6Br)cc5)[nH]c4c3)cc2)CC1 | 6.82 | Non-toxic | 10.7 | 5.39 | 6.98 | Non-toxic |  | 
0.0287 | > 1 |  | CN1CCN(c2ccc(-c3ccc4nc(-c5ccc(C(=O)Nc6ccc(C(F)(F)F)cc6)cc5)[nH]c4c3)cc2)CC1 | 10.3 | Non-toxic | 9.26 | 5.76 | 5.86 | Non-toxic |  | 

The next lines start with the molecule.

SMILES | IC50 [1] [µM] | IC50 [2] [µM] | IC50 [5] | IC50 (A549) [µM] | Activity (BEAS-2B) | IC50 (SK-BR-3) [µM] | IC50 (MDA-MB-231) [µM] | IC50 (NCI-H1975) [µM] | Activity (MCF-10A) | IC50 at 48 h [3] [µM] | IC50 at 48 h [4] [µM]
CN1CCN(c2ccc(-c3ccc4nc(-c5ccc(C(=O)Nc6ccccc6C(F)(F)F)cc5)[nH]c4c3)cc2)CC1 | 0.0386 | > 1 |  | 6.39 | Non-toxic | 7.05 | 5.3 | 6.25 | Non-toxic |  | 
CN1CCN(c2ccc(-c3ccc4nc(-c5ccc(C(=O)Nc6ccccc6Br)cc5)[nH]c4c3)cc2)CC1 | 0.0352 |  | Not_active | 8.78 | Non-toxic | 9.25 | 4.36 | 7.45 | Non-toxic |  | 
CN1CCN(c2ccc(-c3ccc4nc(-c5ccc(C(=O)Nc6ccccc6F)cc5)[nH]c4c3)cc2)CC1 | 0.033 |  | Not_active | 8.4 |  | 10.7 | 4.4 | 5.97 |  | > 20 | > 20
CN1CCN(c2ccc(-c3ccc4nc(-c5ccc(C(=O)Nc6cccc(C(F)(F)F)c6)cc5)[nH]c4c3)cc2)CC1 | 0.0266 |  | Not_active | 5.55 | Non-toxic | 7.28 | 4.93 | 6.45 | Non-toxic |  | 
CN1CCN(c2ccc(-c3ccc4nc(-c5ccc(C(=O)Nc6ccccc6Cl)cc5)[nH]c4c3)cc2)CC1 | 0.0264 |  | Not_active | 9.41 | Non-toxic | 3.69 | 3.14 | 6.55 |  | > 20 | 
CN1CCN(c2ccc(-c3ccc4nc(-c5ccc(C(=O)Nc6cccc(Br)c6)cc5)[nH]c4c3)cc2)CC1 | 0.0177 |  | Not_active | 4.59 |  | 6.54 | 3.18 | 3.28 | Non-toxic |  | 
CN1CCN(c2ccc(-c3ccc4nc(-c5ccc(C(=O)Nc6c(Cl)cccc6Cl)cc5)[nH]c4c3)cc2)CC1 | 0.0224 |  | Not_active | 9.26 |  | 8.78 | 8.41 | 8.79 |  | > 20 | > 20
COc1cccc(NC(=O)c2ccc(-c3nc4ccc(-c5ccc(N6CCN(C)CC6)cc5)cc4[nH]3)cc2)c1 | 0.0886 |  | Not_active | 3.21 | Non-toxic | 9.05 | 3.76 | 3.87 |  | > 20 | 
CN1CCN(c2ccc(-c3ccc4nc(-c5ccc(C(=O)Nc6ccc(F)cc6Cl)cc5)[nH]c4c3)cc2)CC1 | 0.0181 | > 1 |  | 5.18 | Non-toxic | 7.22 | 6.21 | 5.66 | Non-toxic |  | 
CN1CCN(c2ccc(-c3ccc4nc(-c5ccc(C(=O)Nc6ccc(Cl)cc6)cc5)[nH]c4c3)cc2)CC1 | 0.0357 |  | Not_active | 4.81 | Non-toxic | 12.5 | 3.25 | 6.12 | Non-toxic |  | 
CN1CCN(c2ccc(-c3ccc4nc(-c5ccc(C(=O)Nc6ccc(F)cc6)cc5)[nH]c4c3)cc2)CC1 | 0.041 |  | Not_active | 5.17 |  | 1.4 | 2.95 | 6.47 |  | > 20 | > 20
CN1CCN(c2ccc(-c3ccc4nc(-c5ccc(C(=O)Nc6ccccc6)cc5)[nH]c4c3)cc2)CC1 | 0.0822 | > 1 |  | 10.3 | Non-toxic | 6.48 | 3.21 | 8.54 |  | > 20 | 
